# Measurements reported in paper PMC6010023, “Diethylalkylsulfonamido(4-methoxyphenyl)methyl)phosphonate/phosphonic acid derivatives act as acid phosphatase inhibitors: synthesis accompanied by experimental and molecular modeling assessments” (Journal of Enzyme Inhibition and Medicinal Chemistry, 2016).
# Read-outs that look alike come from different tables or passages of the source.
# Target: T1, red kidney bean PAP (rkbPAP) (Phaseolus vulgaris, UniProt P80366)
# T1 construct: The rkbPAP was purified from red kidney bean according to the method described by Beck et al; from tissue; host or cells: red kidney bean seeds (Phaseolus vulgaris), local market
# T1 sequence (P80366 23-459): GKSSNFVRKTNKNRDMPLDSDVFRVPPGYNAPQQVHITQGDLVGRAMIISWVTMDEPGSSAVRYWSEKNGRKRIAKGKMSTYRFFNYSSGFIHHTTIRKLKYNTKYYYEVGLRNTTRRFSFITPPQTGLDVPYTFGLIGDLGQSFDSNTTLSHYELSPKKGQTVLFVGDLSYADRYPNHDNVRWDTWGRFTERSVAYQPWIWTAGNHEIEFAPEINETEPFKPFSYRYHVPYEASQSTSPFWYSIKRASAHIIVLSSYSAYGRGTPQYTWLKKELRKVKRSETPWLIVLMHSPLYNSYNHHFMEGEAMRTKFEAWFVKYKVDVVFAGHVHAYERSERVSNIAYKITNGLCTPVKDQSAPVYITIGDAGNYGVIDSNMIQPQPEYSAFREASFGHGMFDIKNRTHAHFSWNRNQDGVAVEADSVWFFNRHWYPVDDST
# Test: rkbPAP inhibition assay with p-NPP as substrate
# Type: biochemical
# Settings: for Ki / inhibition of PAP (in words): pH 4.9; for inhibition mode: from Ki vs KI and Lineweaver–Burk plots
# Excerpt: PAP from red kidney bean (rkbPAP) was purified following a previously published protocol. Briefly, red kidney beans (Phaseolus vulgaris), provided from local market, were ground and suspended in 0.5 M sodium chloride solution. The suspension was filtered through a muslin cloth, followed by ethanol fractionation and ammonium sulfate precipitation. The purple enzyme solution was dialyzed against several changes of 0.25 M NaCl over a period of several days. The purple precipitate, which formed in the dialysis bag was collected by centrifugation. The resulting preparation stored at 4 °C in 0.5 M NaCl. The protein identity and purity was tested by SDS–polyacrylamide gel electrophoresis (SDS–PAGE) and by comparing with molecular weight protein markers, by loading the protein samples on a 12% slab gel. Protein concentration was determined by Lowry method.
# Inhibition assays for rkbPAP was performed in 96-well multi-titer plates using a microplate reader. Kinetic measurements were taken at pH 4.9 (0.1 M sodium citrate buffer with 5% DMSO) at 25 °C using p-nitrophenyl phosphate (p-NPP) as the substrate at concentrations of 1, 2, 4, 6, 8, 10, 12, 14, 18 and 24 mM[29]. The hydrolysis of p-NPP by PAP produces p-nitrophenol (p-NP), which has a characteristic intense yellow color at 405 nm with […] [18]^,[26]. The concentration of enzyme used was ∼60 nM, while at least eight concentrations of each compound ranged from 50 to 2000 µM. The IC50 values obtained by “Dose–response inhibition/variable slopes” equation that was performed using GraphPad Prism version 5.00 for Windows (GraphPad Software, San Diego CA, www.graphpad.com). The experimental data are representative example of three independent experiments. In most cases, the standard deviations were almost within 5% of the experimental values, except for some inhibition data points where standard errors of means were within 10% of the measured values. p < .05 was considered statistically significant.
# To determination of inhibition mode, the Michaelis–Menten constant (Km) and maximum velocity (Vmax) and inhibition constants (Ki and KI) values were obtained using Equation (1)[29]^,[30] in the presence of at least four concentrations of each compound which were selected from concentration–activity curves. The data were analyzed by nonlinear regression using the program GraphPad Prism (1) v=Vmax[S]/[S](1+[I]/KI)+Km(1+[I]/Ki) where Ki and KI are the equilibrium dissociation constants for competitive and uncompetitive inhibitor binding, respectively, while, v, [S] and [I] represent the rate of product formation, the substrate and the inhibitor concentration, respectively. […] If Ki < KI, the type of enzyme inhibition was defined as competitive-noncompetitive and if Ki > KI, the type of enzyme inhibition was defined as uncompetitive–noncompetitive. […] For better visual presentation of data of inhibition mode, the Lineweaver–Burk plots were also provided.
# [1] = KI, dissociation constant of enzyme–substrate–inhibitor complex (uncompetitive)
# [2] = Ki, dissociation constant of enzyme–inhibitor complex (competitive)
# [3] = dissociation constant of enzyme–inhibitor complex (competitive), read-out: Ki
# [4] = rkbPAP, pH 4.9, 25 °C, p-NPP substrate, read-out: IC50
# [5] = dissociation constant of enzyme–substrate–inhibitor complex (uncompetitive), read-out: KI
# [6] = rkbPAP, pH 4.9, 25 °C, p-NPP substrate
Compound,inhibition mode,Ki [3] [µM],inhibition of PAP (in words),IC50 [4] [µM],IC50 [6],further results
"CCCCCCCCCCCCCCCCS(=O)(=O)NC(c1ccc(OC)cc1)P(=O)(OCC)OCC (stereo not drawn) [3d, Diethyl(hexadecylsulfonamido(4-methoxyphenyl)methyl)phosphonate]",mixed manner,,,,,IC50: 92 µM; Ki [1]: 36 ± 3 µM; Ki [2]: 13 ± 1 µM
"O=C(O)C(O)C(O)C(=O)O (stereo not drawn) [Tartrate, reference compound]",,783 ± 41,weakly inhibited,3310,,
"CCCCCCCCCCCCS(=O)(=O)NC(c1ccc(OC)cc1)P(=O)(O)O (stereo not drawn) [4c, (Dodecylsulfonamido(4-methoxyphenyl)methyl)phosphonic acid]",noncompetitive inhibition,95 ± 9,,421,,Ki [5]: 103 ± 5 µM
"CCCCCCS(=O)(=O)NC(c1ccc(OC)cc1)P(=O)(OCC)OCC (stereo not drawn) [3a, Diethyl(hexylsulfonamido(4-methoxyphenyl)methyl)phosphonate]",,,"negligible inhibitions of PAP, in millimolar range",,Very weak inhibitor,
"CCCCCCS(=O)(=O)NC(c1ccc(OC)cc1)P(=O)(O)O (stereo not drawn) [4a, (Hexylsulfonamido(4-methoxyphenyl)methyl)phosphonic acid]",,,"negligible inhibitions of PAP, in millimolar range",,Very weak inhibitor,
"CCCCCCCCS(=O)(=O)NC(c1ccc(OC)cc1)P(=O)(O)O (stereo not drawn) [4b, ((4-Methoxyphenyl)(octylsulfonamido)methyl)phosphonic acid]",,,"negligible inhibitions of PAP, in millimolar range",,Very weak inhibitor,
"CCCCCCCCS(=O)(=O)NC(c1ccc(OC)cc1)P(=O)(OCC)OCC (stereo not drawn) [3b, Diethyl((4-methoxyphenyl)(octylsulfonamido)methyl)phosphonate]",,,"negligible inhibitions of PAP, in millimolar range",,Very weak inhibitor,
"CCCCCCCCCCCCS(=O)(=O)NC(c1ccc(OC)cc1)P(=O)(OCC)OCC (stereo not drawn) [3c, Diethyl(dodecylsulfonamido(4-methoxyphenyl)methyl)phosphonate]",noncompetitive inhibition,,,,,IC50: 759 µM; Ki [1]: 211 ± 8 µM; Ki [2]: 202 ± 11 µM
"CCCCCCCCCCCCCCCCS(=O)(=O)NC(c1ccc(OC)cc1)P(=O)(O)O (stereo not drawn) [4d, (Hexadecylsulfonamido(4-methoxyphenyl)methyl)phosphonic acid]",mixed manner,1.1 ± 0.2,,13,,Ki [5]: 8.2 ± 1.4 µM
